Laboratory results reported in US20020137929A1, “1 - (3-heterocyclylphenyl) isothiourea, -isourea, -guanidine and -amidine herbicidal agents” (Intellectual Property Department, BASF Aktiengesellschaft, priority 1998, published 2002).

Tests used:
[1] = system: CYPSE (Flatsedge); assay: Preemergence weed control under flooded paddy conditions; format: in vivo, Cyperus serotinus; settings: rated 3-4 weeks after treatment
Procedure, shortened: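 Silt loam, seeds in top 0.5 cm; flood held 1.5-3 cm; test cpd as acetone/water 50/50 into flood water, ~0.0313-0.500 kg/ha a.i.; greenhouse 3-4 wk; visual 0-9 score vs control.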

[2] = system: AMBEL (Ragweed, Common); assay: Postemergence herbicidal evaluation; format: in vivo, Ambrosia artemisifolia; settings: postemergence
Procedure, shortened: (§1)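 Compound is applied as a foliar spray to seedlings about two weeks old, formulated in equal parts acetone and water with 0.5% TWEEN 20 and delivered at 40 psi to give about 0.0156–0.500 kg per hectare. Injury is rated visually 0–9 after four to five weeks.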

[3] = system: CHEAL (Lambsquarters, Common); assay: Postemergence herbicidal evaluation; format: in vivo, Chenopodium album; settings: postemergence
Procedure, shortened: as §1

[4] = system: ABUTH (Velvetleaf); assay: Postemergence herbicidal evaluation; format: in vivo, Abutilon theophrasti; settings: postemergence
Procedure, shortened: as §1

[5] = system: AMBEL (Ragweed, Common); assay: Preemergence herbicidal evaluation; format: in vivo, Ambrosia artemisifolia; settings: rated 4-5 weeks after treatment
Procedure, shortened: (§2)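 Greenhouse preemergence test: seed-soil mix sown on ~1 inch soil; aqueous acetone spray at equivalent of ~0.0156–0.500 kg/ha; greenhouse-held and watered; scored 0–9 visually at 4–5 weeks.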

[6] = system: CHEAL (Lambsquarters, Common); assay: Preemergence herbicidal evaluation; format: in vivo, Chenopodium album; settings: rated 4-5 weeks after treatment
Procedure, shortened: as §2

[7] = system: ECHCG (Barnyardgrass); assay: Postemergence herbicidal evaluation; format: in vivo, Echinochloa crus-galli; settings: postemergence
Procedure, shortened: as §1

[8] = system: GALAP (Galium); assay: Preemergence herbicidal evaluation; format: in vivo, Galium aparine; settings: rated 4-5 weeks after treatment
Procedure, shortened: as §2

[9] = system: ORYSAT (Rice, Tebonnet); assay: Postemergence herbicidal evaluation; format: in vivo, Oryza sativa, (L.) Tebonnet; settings: postemergence
Procedure, shortened: as §1

[10] = system: GLXMAW (Soybean, Williams); assay: Postemergence herbicidal evaluation; format: in vivo, Glycine max, (L.) Merr. cv Williams; settings: postemergence
Procedure, shortened: as §1

[11] = system: ZEAMX (Corn, Field); assay: Postemergence herbicidal evaluation; format: in vivo, Zea mays; settings: postemergence
Procedure, shortened: as §1

[12] = system: CASOB (Sicklepod); assay: Preemergence herbicidal evaluation; format: in vivo, Cassia obtusifolia; settings: rated 4-5 weeks after treatment
Procedure, shortened: as §2

[13] = rate 0.0156 kg/ha, rating scale 0-9
[14] = rate 0.0313 kg/ha, rating scale 0-9
[15] = rate 0.0625 kg/ha, rating scale 0-9
[16] = rate 0.1250 kg/ha, rating scale 0-9
[17] = rate 0.2500 kg/ha, rating scale 0-9

Cn1c(C(F)(F)F)cc(=O)n(-c2cc(N=C3SCC(=O)N3Cc3ccc(C(F)(F)F)cc3)c(Cl)cc2F)c1=O [Compound 141, 3-{4-Chloro-2-fluoro-5-{{3-[p-(trifluoromethyl)benzyl]-4-oxo-2-thiazolidinylidene}-amino}phenyl}-1-methyl-6-(trifluoromethyl)-2,4 (1H, 3H)-pyrimidinedione]
herbicidal effect rating, CYPSE ([1]; 0.0313 kg/ha): 0.0
herbicidal effect rating, CYPSE ([1]; 0.0625 kg/ha): 0.0
herbicidal effect rating, CYPSE ([1]; 0.1250 kg/ha): 0.0
herbicidal effect rating, CYPSE ([1]; 0.2500 kg/ha): 0.0
Herbicidal rating AMBEL ([2]; rate 0.0156 kg/ha): 7.0
Herbicidal rating AMBEL ([2]; rate 0.0313 kg/ha): 7.0
Herbicidal rating AMBEL ([2]; rate 0.0625 kg/ha): 9.0
Herbicidal rating CHEAL ([3]; rate 0.0156 kg/ha): 3.0
Herbicidal rating CHEAL ([3]; rate 0.0313 kg/ha): 5.0
Herbicidal rating CHEAL ([3]; rate 0.0625 kg/ha): 9.0
Herbicidal rating ABUTH ([4]; rate 0.0156 kg/ha): 7.0
Herbicidal rating ABUTH ([4]; rate 0.0313 kg/ha): 7.0
Herbicidal rating ABUTH ([4]; rate 0.0625 kg/ha): 8.0
Preemergence herbicidal rating AMBEL [5, 13]: 0.0
Preemergence herbicidal rating AMBEL [5, 14]: 0.0
Preemergence herbicidal rating AMBEL [5, 15]: 0.0
Preemergence herbicidal rating AMBEL [5, 16]: 0.0
Preemergence herbicidal rating AMBEL [5, 17]: 4.0
Preemergence herbicidal rating CHEAL [6, 13]: 3.0
Preemergence herbicidal rating CHEAL [6, 14]: 9.0
Preemergence herbicidal rating CHEAL [6, 15]: 9.0
Preemergence herbicidal rating CHEAL [6, 16]: 9.0
Preemergence herbicidal rating CHEAL [6, 17]: 9.0
Herbicidal rating ECHCG ([7]; rate 0.0156 kg/ha): 0.0
Herbicidal rating ECHCG ([7]; rate 0.0313 kg/ha): 0.0
Herbicidal rating ECHCG ([7]; rate 0.0625 kg/ha): 0.0
Preemergence herbicidal rating GALAP [8, 13]: 0.0
Preemergence herbicidal rating GALAP [8, 14]: 0.0
Preemergence herbicidal rating GALAP [8, 15]: 0.0
Preemergence herbicidal rating GALAP [8, 16]: 0.0
Preemergence herbicidal rating GALAP [8, 17]: 0.0
Herbicidal rating ORYSAT ([9]; rate 0.0156 kg/ha): 0.5
Herbicidal rating ORYSAT ([9]; rate 0.0313 kg/ha): 1.5
Herbicidal rating ORYSAT ([9]; rate 0.0625 kg/ha): 2.0
Herbicidal rating GLXMAW ([10]; rate 0.0156 kg/ha): 4.0
Herbicidal rating GLXMAW ([10]; rate 0.0313 kg/ha): 4.0
Herbicidal rating GLXMAW ([10]; rate 0.0625 kg/ha): 4.5
Herbicidal rating ZEAMX ([11]; rate 0.0156 kg/ha): 4.0
Herbicidal rating ZEAMX ([11]; rate 0.0313 kg/ha): 4.5
Herbicidal rating ZEAMX ([11]; rate 0.0625 kg/ha): 5.0
Preemergence herbicidal rating CASOB [12, 13]: 0.0
Preemergence herbicidal rating CASOB [12, 14]: 0.0
Preemergence herbicidal rating CASOB [12, 15]: 0.0
Preemergence herbicidal rating CASOB [12, 16]: 0.0
Preemergence herbicidal rating CASOB [12, 17]: 3.0

COC(=O)COC(=O)CN1C(=O)CSC1=Nc1cc(-n2c(=O)cc(C(F)(F)F)n(C)c2=O)c(F)cc1Cl [Compound 108, 2-{{2-Chloro-5-[3,6-dihydro-3-methyl-2,6-dioxo-4-(trifluoromethyl)-1(2H)-pyrimidinyl]-4-fluorophenyl}imino}-4-oxo-3-thiazolidineacetic acid, ester with methyl glycolate]
CYPSE herbicidal effect rating ([1]; 0.0313 kg/ha): 0.0
CYPSE herbicidal effect rating ([1]; 0.0625 kg/ha): 0.0
CYPSE herbicidal effect rating ([1]; 0.1250 kg/ha): 0.0
Herbicidal rating AMBEL ([2]; rate 0.0158 kg/ha): 4.0
Herbicidal rating AMBEL ([2]; rate 0.0315 kg/ha): 5.0
Herbicidal rating AMBEL ([2]; rate 0.0630 kg/ha): 5.0
Herbicidal rating CHEAL ([3]; rate 0.0158 kg/ha): 4.0
Herbicidal rating CHEAL ([3]; rate 0.0315 kg/ha): 7.0
Herbicidal rating CHEAL ([3]; rate 0.0630 kg/ha): 9.0
Herbicidal rating ABUTH ([4]; rate 0.0158 kg/ha): 9.0
Herbicidal rating ABUTH ([4]; rate 0.0315 kg/ha): 9.0
Herbicidal rating ABUTH ([4]; rate 0.0630 kg/ha): 9.0
Preemergence herbicidal rating AMBEL ([5]; rate 0.0156 kg/ha): 0.0
Preemergence herbicidal rating AMBEL ([5]; rate 0.0313 kg/ha): 0.0
Preemergence herbicidal rating AMBEL ([5]; rate 0.0625 kg/ha): 0.0
Preemergence herbicidal rating AMBEL ([5]; rate 0.1250 kg/ha): 0.0
Preemergence herbicidal rating AMBEL ([5]; rate 0.2500 kg/ha): 1.0
Preemergence herbicidal rating CHEAL ([6]; rate 0.0313 kg/ha): 0.0
Preemergence herbicidal rating CHEAL ([6]; rate 0.0625 kg/ha): 9.0
Preemergence herbicidal rating CHEAL ([6]; rate 0.1250 kg/ha): 9.0
Preemergence herbicidal rating CHEAL ([6]; rate 0.2500 kg/ha): 9.0
Herbicidal rating ECHCG ([7]; rate 0.0158 kg/ha): 3.0
Herbicidal rating ECHCG ([7]; rate 0.0315 kg/ha): 4.0
Herbicidal rating ECHCG ([7]; rate 0.0630 kg/ha): 4.0
Preemergence herbicidal rating GALAP ([8]; rate 0.0156 kg/ha): 1.0
Preemergence herbicidal rating GALAP ([8]; rate 0.0313 kg/ha): 2.0
Preemergence herbicidal rating GALAP ([8]; rate 0.0625 kg/ha): 6.0
Preemergence herbicidal rating GALAP ([8]; rate 0.1250 kg/ha): 7.0
Preemergence herbicidal rating GALAP ([8]; rate 0.2500 kg/ha): 9.0
Herbicidal rating ORYSAT ([9]; rate 0.0158 kg/ha): 3.0
Herbicidal rating ORYSAT ([9]; rate 0.0315 kg/ha): 3.0
Herbicidal rating ORYSAT ([9]; rate 0.0630 kg/ha): 3.5
Herbicidal rating GLXMAW ([10]; rate 0.0158 kg/ha): 5.0
Herbicidal rating GLXMAW ([10]; rate 0.0315 kg/ha): 5.5
Herbicidal rating GLXMAW ([10]; rate 0.0630 kg/ha): 6.0
Herbicidal rating ZEAMX ([11]; rate 0.0158 kg/ha): 5.0
Herbicidal rating ZEAMX ([11]; rate 0.0315 kg/ha): 6.0
Herbicidal rating ZEAMX ([11]; rate 0.0630 kg/ha): 6.5
Preemergence herbicidal rating CASOB ([12]; rate 0.0156 kg/ha): 0.0
Preemergence herbicidal rating CASOB ([12]; rate 0.0313 kg/ha): 0.0
Preemergence herbicidal rating CASOB ([12]; rate 0.0625 kg/ha): 0.0
Preemergence herbicidal rating CASOB ([12]; rate 0.1250 kg/ha): 0.0
Preemergence herbicidal rating CASOB ([12]; rate 0.2500 kg/ha): 9.0

Cn1c(C(F)(F)F)cc(=O)n(-c2cc(N=C3SCC(=O)N3CC(=O)OC3CCCC3)c(Cl)cc2F)c1=O [Compound 120, Cyclopentyl 2-{{2-chloro-5-[3,6-dihydro-3-methyl-2,6-dioxo-4-(trifluoromethyl)-1(2H)-pyrimidinyl]-4-fluorophenyl}imino}-4-oxo-3-thiazolidineacetate]
herbicidal effect rating, CYPSE ([1]; 0.0313 kg/ha): 0.0
herbicidal effect rating, CYPSE ([1]; 0.0625 kg/ha): 0.0
herbicidal effect rating, CYPSE ([1]; 0.1250 kg/ha): 0.0
herbicidal effect rating, CYPSE ([1]; 0.2500 kg/ha): 3.5
Herbicidal rating AMBEL ([2]; rate 0.0156 kg/ha): 9.0
Herbicidal rating AMBEL ([2]; rate 0.0313 kg/ha): 9.0
Herbicidal rating AMBEL ([2]; rate 0.0625 kg/ha): 9.0
Herbicidal rating CHEAL ([3]; rate 0.0156 kg/ha): 9.0
Herbicidal rating CHEAL ([3]; rate 0.0313 kg/ha): 9.0
Herbicidal rating CHEAL ([3]; rate 0.0625 kg/ha): 9.0
Herbicidal rating ABUTH ([4]; rate 0.0156 kg/ha): 9.0
Herbicidal rating ABUTH ([4]; rate 0.0313 kg/ha): 9.0
Herbicidal rating ABUTH ([4]; rate 0.0625 kg/ha): 9.0
Preemergence herbicidal rating AMBEL ([5]; rate 0.0156 kg/ha): 0.0
Preemergence herbicidal rating AMBEL ([5]; rate 0.0313 kg/ha): 0.0
Preemergence herbicidal rating AMBEL ([5]; rate 0.0625 kg/ha): 3.0
Preemergence herbicidal rating AMBEL ([5]; rate 0.1250 kg/ha): 4.0
Preemergence herbicidal rating AMBEL ([5]; rate 0.2500 kg/ha): 4.0
Preemergence herbicidal rating CHEAL ([6]; rate 0.0156 kg/ha): 9.0
Preemergence herbicidal rating CHEAL ([6]; rate 0.0313 kg/ha): 9.0
Preemergence herbicidal rating CHEAL ([6]; rate 0.0625 kg/ha): 9.0
Preemergence herbicidal rating CHEAL ([6]; rate 0.1250 kg/ha): 9.0
Preemergence herbicidal rating CHEAL ([6]; rate 0.2500 kg/ha): 9.0
Herbicidal rating ECHCG ([7]; rate 0.0156 kg/ha): 1.0
Herbicidal rating ECHCG ([7]; rate 0.0313 kg/ha): 2.0
Herbicidal rating ECHCG ([7]; rate 0.0625 kg/ha): 5.0
Preemergence herbicidal rating GALAP ([8]; rate 0.0156 kg/ha): 0.0
Preemergence herbicidal rating GALAP ([8]; rate 0.0313 kg/ha): 0.0
Preemergence herbicidal rating GALAP ([8]; rate 0.0625 kg/ha): 0.0
Preemergence herbicidal rating GALAP ([8]; rate 0.1250 kg/ha): 0.0
Preemergence herbicidal rating GALAP ([8]; rate 0.2500 kg/ha): 0.0
Herbicidal rating ORYSAT ([9]; rate 0.0156 kg/ha): 2.0
Herbicidal rating ORYSAT ([9]; rate 0.0313 kg/ha): 2.5
Herbicidal rating ORYSAT ([9]; rate 0.0625 kg/ha): 2.5
Herbicidal rating GLXMAW ([10]; rate 0.0156 kg/ha): 7.5
Herbicidal rating GLXMAW ([10]; rate 0.0313 kg/ha): 9.0
Herbicidal rating GLXMAW ([10]; rate 0.0625 kg/ha): 9.0
Herbicidal rating ZEAMX ([11]; rate 0.0156 kg/ha): 6.0
Herbicidal rating ZEAMX ([11]; rate 0.0313 kg/ha): 7.0
Herbicidal rating ZEAMX ([11]; rate 0.0625 kg/ha): 8.0
Preemergence herbicidal rating CASOB ([12]; rate 0.0156 kg/ha): 0.0
Preemergence herbicidal rating CASOB ([12]; rate 0.0313 kg/ha): 0.0
Preemergence herbicidal rating CASOB ([12]; rate 0.0625 kg/ha): 3.0
Preemergence herbicidal rating CASOB ([12]; rate 0.1250 kg/ha): 4.0
Preemergence herbicidal rating CASOB ([12]; rate 0.2500 kg/ha): 4.0
